{
  "source": "patent US7011834B1",
  "about": "“Immunomodulating dimers” (The Board of Trustees of Leland Stanford Junior University, priority 1987, dated 2006)",
  "key": {"purified T cells": {"test_system": "purified T cells", "assay": "Proliferation assay: purified T cells stimulated by immobilized anti-CD3, 3H-thymidine incorporation", "assay_type": "cell-based, human", "procedure": "Cells and Cell Culture. PBL were isolated from normal donors by centrifugation over Ficoll-Hypaque. In some cases, T cells were purified from this preparation using the method of Secrist et al. [J. Exp. Med. (1993) 178:2123]. Briefly, cells isolated over Ficoll-Hypaque were incubated for 1 hour in Petri dishes. Nonadherent cells were passed over a nylon wool column and the resulting population was >90% CD3+ by FACS analysis. CD8+CTL lines specific for HLA-A2, B7, B27, B48, or Cw4 were generated and maintained in long-term culture as previously described [Buxton et al., J. Exp. Med. (1992) 175:809; Wesley et al., Hum. Immunol. (1993) 36:149]. Jurkat E6-1 and the T cell receptor negative Jurkat, JRT3-T3.5, were obtained from the American Type Culture Collection (ATCC; Rockville, Md.). Other cell lines used included the EBV transformed B cell lines JY, MS, C1R, and 721.221; K562 and HEL, erythroleukemia cell lines; the T cell tumors Peer, Hut-78 and HSB; the Burkitt's lymphoma cell lines Daudi and SUP B17 [Wright et al., J. Exp. Med. (1989) 169:1557], and the NK-like cell line YT2C2. […]\nProliferation Assay. […] Plates were harvested on a PHD Cell Harvester 24 hours later and [^3H]-thymidine incorporation determined by scintillation counting.\nPeptides were evaluated for effects on the proliferation of purified T cells stimulated by immobilized anti-CD3 antibody. […]"}, "[1]": {"test_system": "CD8+CTL line specific for HLA-A2", "assay": "Cytotoxicity assay: inhibition of lysis by established CTL, 51Cr-labeled JY targets", "assay_type": "cell-based, human", "details": "cell ratio 10:1, CTL line AJY"}, "PBL from normal donors": {"test_system": "PBL from normal donors", "assay": "PBL proliferation with Conagglutinin A, 3H-thymidine incorporation", "assay_type": "cell-based, human", "details": "approximate, purity not established", "procedure": "To measure the effect of D-substitutions on proliferation, PBL from normal donors were cultured at 5×10^5 cells/round bottom microtiter well in RPMI-1640 supplemented with 10% fetal bovine serum and L-glutamine. Cultures were supplemented with Conagglutinin A. Cells were incubated at 37° C. for three days at which point ^3H-thymidine (1 μCi/well) was added. After 24 hours, wells were harvested and ^3H-thymidine incorporation determined by scintillation counter."}, "cardiac allograft": {"test_system": "cardiac allograft", "assay": "Heterotopic cardiac allograft survival, Lew donor to ACI recipient", "assay_type": "in vivo, rat", "details": "peptide in two weeks before or 4 days after surgery plus CsA on days 0–4", "text": "Vascularized cardiac allografts were heterotypically transplanted into the abdomen of recipient rats using a modification of the technique of Ono and Lindsay (Ono and Lindsey J. Thorac. Cardiovasc. Surg. (1969) 57:225). Abdominal allografts were palpated on a daily basis to assess graft function, and rejection was deemed complete when palpable ventricular contractions ceased.\nCyclosporin A (CsA, Sandoz Pharmaceuticals Corporation, Base, Switzerland) dissolved in olive oil was given orally through a gavage tube at the indicated dose. Peptides were dissolved in water or saline and given intravenously or by gavage as indicated.\nSince the B7.75-84 and B2702.75-84 peptides blocked cellular immunity in vivo, we examined their effects on allograft survival in rats. ACI (RT1^a) recipients were given abdominal heterotopic heart allografts from Lew donors (Moeller et al. 1993, supra; Ono and Lindsey. 1969, supra). Graft function was monitored by daily abdominal palpation, and rejection was scored as complete when the palpable ventricular contractions ceased."}},
  "data": [
    {"sequence": "RENLRIALRY [B2702.75–84]", "values": [
      {"measurement": "inhibition of proliferation of purified T cells stimulated by immobilized anti-CD3 antibody", "setting": "purified T cells", "result": "do not"},
      {"measurement": "% Specific Lysis", "setting": "[1]; peptide 25 μg/ml", "result": 60.9, "unit": "%"},
      {"measurement": "% Specific Lysis", "setting": "[1]; peptide 100 μg/ml", "result": 43.7, "unit": "%"},
      {"measurement": "% Specific Lysis", "setting": "[1]; peptide 200 μg/ml", "result": 33.1, "unit": "%"},
      {"measurement": "CPM ± SD (3H-thymidine incorporation)", "setting": "PBL from normal donors; peptide 50 μg/ml, Con A 1 mg/ml", "result": "5,806 ± 721 CPM"},
      {"measurement": "CPM ± SD (3H-thymidine incorporation)", "setting": "PBL from normal donors; peptide 50 μg/ml, Con A 3 mg/ml", "result": "32,618 ± 1582 CPM"},
      {"measurement": "CPM ± SD (3H-thymidine incorporation)", "setting": "PBL from normal donors; peptide 200 μg/ml, Con A 1 mg/ml", "result": "2,322 ± 147 CPM"},
      {"measurement": "CPM ± SD (3H-thymidine incorporation)", "setting": "PBL from normal donors; peptide 200 μg/ml, Con A 3 mg/ml", "result": "20,905 ± 2047 CPM"},
      {"measurement": "rejection of transplants with peptide plus CsA", "setting": "cardiac allograft", "result": "rejected similarly to allografts in animals treated with CsA alone"}
    ]}
  ]
}
